From patent US20250215012A1, “IKZF2 DEGRADERS AND USES THEREOF” (REGENTS OF THE UNIVERSITY OF MICHIGAN, priority 2022, published 2025)

Molecular target: IKZF2 (Homo sapiens (Human), UniProt Q96SW2+Q9UKS7)
Experiment: IKZF2 HiBiT Assay (Jurkat-IKZF2-HiBiT cell line)
Assay type: cell-based
Conditions: Jurkat-IKZF2-HiBiT cells, 24 hours; for DC50: read-out: HiBit assay degradation analysis DC50; for Dmax: read-out: HiBit assay degradation analysis Dmax
Summary of the method: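 IKZF2 degradation was assessed as HiBiT luminescence in Jurkat-IKZF2-HiBiT cells, using lytic detection after 24 h of compound treatment at 37 °C, 5% CO2.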

Sequence of IKZF2 (Q9UKS7 whole entry): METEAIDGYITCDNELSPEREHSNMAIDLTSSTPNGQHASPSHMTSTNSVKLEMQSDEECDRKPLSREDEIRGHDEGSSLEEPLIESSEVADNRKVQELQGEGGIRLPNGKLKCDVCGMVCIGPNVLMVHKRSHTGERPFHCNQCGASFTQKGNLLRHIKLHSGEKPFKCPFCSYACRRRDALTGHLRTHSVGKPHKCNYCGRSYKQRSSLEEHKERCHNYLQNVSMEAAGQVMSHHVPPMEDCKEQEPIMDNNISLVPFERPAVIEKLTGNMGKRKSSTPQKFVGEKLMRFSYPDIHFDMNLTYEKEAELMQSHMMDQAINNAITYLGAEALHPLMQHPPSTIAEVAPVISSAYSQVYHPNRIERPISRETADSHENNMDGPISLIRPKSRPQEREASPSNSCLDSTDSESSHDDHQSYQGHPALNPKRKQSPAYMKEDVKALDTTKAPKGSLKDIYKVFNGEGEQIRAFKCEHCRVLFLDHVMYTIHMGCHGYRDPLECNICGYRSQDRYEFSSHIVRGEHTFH
Sequence of IKZF2 (Q96SW2 whole entry): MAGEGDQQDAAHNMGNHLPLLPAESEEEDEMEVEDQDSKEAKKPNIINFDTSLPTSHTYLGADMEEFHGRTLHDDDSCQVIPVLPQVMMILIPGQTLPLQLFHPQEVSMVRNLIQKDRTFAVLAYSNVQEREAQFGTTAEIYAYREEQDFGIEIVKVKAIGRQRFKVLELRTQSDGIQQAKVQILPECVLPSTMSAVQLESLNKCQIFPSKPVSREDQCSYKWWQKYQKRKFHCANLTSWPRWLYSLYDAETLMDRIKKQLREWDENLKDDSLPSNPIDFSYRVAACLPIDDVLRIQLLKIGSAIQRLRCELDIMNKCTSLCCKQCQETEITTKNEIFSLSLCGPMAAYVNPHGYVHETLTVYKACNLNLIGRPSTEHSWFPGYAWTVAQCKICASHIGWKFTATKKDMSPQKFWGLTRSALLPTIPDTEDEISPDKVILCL
Sequence of IKZF2 (Q16531 whole entry partner): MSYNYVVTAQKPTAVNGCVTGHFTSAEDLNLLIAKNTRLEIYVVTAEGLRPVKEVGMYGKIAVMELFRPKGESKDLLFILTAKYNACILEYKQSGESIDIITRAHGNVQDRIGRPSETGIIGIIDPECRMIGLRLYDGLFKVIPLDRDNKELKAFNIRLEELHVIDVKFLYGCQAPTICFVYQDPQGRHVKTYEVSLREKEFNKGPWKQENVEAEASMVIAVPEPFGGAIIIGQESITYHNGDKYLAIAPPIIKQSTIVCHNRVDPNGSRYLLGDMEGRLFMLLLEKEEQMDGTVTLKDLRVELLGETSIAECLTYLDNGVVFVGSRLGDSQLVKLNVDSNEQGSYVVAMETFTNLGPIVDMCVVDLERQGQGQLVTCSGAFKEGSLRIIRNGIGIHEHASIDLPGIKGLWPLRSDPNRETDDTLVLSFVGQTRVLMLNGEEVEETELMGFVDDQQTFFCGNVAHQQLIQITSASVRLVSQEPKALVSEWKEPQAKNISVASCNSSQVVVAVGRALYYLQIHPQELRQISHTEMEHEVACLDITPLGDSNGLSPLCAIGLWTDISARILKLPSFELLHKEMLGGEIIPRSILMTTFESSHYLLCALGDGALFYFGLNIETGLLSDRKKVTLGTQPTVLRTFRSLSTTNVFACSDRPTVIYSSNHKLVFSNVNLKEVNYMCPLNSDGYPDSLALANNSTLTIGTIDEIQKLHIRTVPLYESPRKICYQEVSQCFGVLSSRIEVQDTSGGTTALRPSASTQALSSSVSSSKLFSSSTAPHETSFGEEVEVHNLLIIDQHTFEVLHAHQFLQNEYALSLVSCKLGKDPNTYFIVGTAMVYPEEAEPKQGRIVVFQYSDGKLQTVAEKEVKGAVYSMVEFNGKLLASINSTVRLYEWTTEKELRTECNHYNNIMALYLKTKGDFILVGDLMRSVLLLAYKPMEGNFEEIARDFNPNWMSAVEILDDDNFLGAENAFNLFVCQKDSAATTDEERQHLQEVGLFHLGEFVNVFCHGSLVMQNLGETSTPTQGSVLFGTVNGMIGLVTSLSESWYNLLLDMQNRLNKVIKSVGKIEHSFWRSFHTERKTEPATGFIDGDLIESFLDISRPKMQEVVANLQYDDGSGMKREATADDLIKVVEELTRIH

## Cn1ncc(-c2cccc(CN3CCC4(CC3)COc3c4ccc4c3CN([C@H]3CCC(=O)NC3=O)C4=O)c2)n1 [Compound A296, (S)-3-(1′-(3-(2-methyl-2H-1,2,3-triazol-4-yl)benzyl)-6-oxo-6,8-dihydro-2H,7H-spiro[furo[2,3-e]isoindole-3,4′-piperidin]-7-yl)piperidine-2,6-dione]
  DC50: < 50 nM
  Dmax: 60 to 80%

## CO[C@H]1C[C@H](n2cc(-c3cccc(CN4CCC5(CC4)COc4c5ccc5c4CN([C@H]4CCC(=O)NC4=O)C5=O)c3)cn2)C1 [Compound A297, (S)-3-(1′-(3-(1-((1r,3r)-3-methoxycyclobutyl)-1H-pyrazol-4-yl)benzyl)-6-oxo-6,8-dihydro-2H,7H-spiro[furo[2,3-e]isoindole-3,4′-piperidin]-7-yl)piperidine-2,6-dione]
  DC50: < 50 nM
  Dmax: 60 to 80%

## CCn1ncc2ccc(CN3CCC4(CC3)COc3c4ccc4c3CN([C@H]3CCC(=O)NC3=O)C4=O)cc21 [Compound A298, (S)-3-(1′-((1-ethyl-1H-indazol-6-yl)methyl)-6-oxo-6,8-dihydro-2H,7H-spiro[furo[2,3-e]isoindole-3,4′-piperidin]-7-yl)piperidine-2,6-dione]
  DC50: 50 to 200 nM
  Dmax: 60 to 80%

## CCn1cc2ccc(CN3CCC4(CC3)COc3c4ccc4c3CN([C@H]3CCC(=O)NC3=O)C4=O)cc2n1 [Compound A299, (S)-3-(1′-((2-ethyl-2H-indazol-6-yl)methyl)-6-oxo-6,8-dihydro-2H,7H-spiro[furo[2,3-e]isoindole-3,4′-piperidin]-7-yl)piperidine-2,6-dione]
  DC50: < 50 nM
  Dmax: 60 to 80%

## [2H]C([2H])([2H])n1ncc2ccc(CN3CCC4(CC3)COc3c4ccc4c3CN([C@H]3CCC(=O)NC3=O)C4=O)cc21 [Compound A300, (S)-3-(1′-((1-(methyl-d3)-1H-indazol-6-yl)methyl)-6-oxo-6,8-dihydro-2H,7H-spiro[furo[2,3-e]isoindole-3,4′-piperidin]-7-yl)piperidine-2,6-dione]
  DC50: < 50 nM
  Dmax: 60 to 80%

## [2H]C([2H])([2H])n1cc2ccc(CN3CCC4(CC3)COc3c4ccc4c3CN([C@H]3CCC(=O)NC3=O)C4=O)cc2n1 [Compound A301, (S)-3-(1′-((2-(methyl-d3)-2H-indazol-6-yl)methyl)-6-oxo-6,8-dihydro-2H,7H-spiro[furo[2,3-e]isoindole-3,4′-piperidin]-7-yl)piperidine-2,6-dione]
  DC50: < 50 nM
  Dmax: 60 to 80%

## [2H]C([2H])([2H])n1ccc(-c2cccc(CN3CCC4(CC3)COc3c4ccc4c3CN([C@H]3CCC(=O)NC3=O)C4=O)c2)n1 [Compound A302, (S)-3-(1′-(3-(1-(methyl-d3)-1H-pyrazol-3-yl)benzyl)-6-oxo-6,8-dihydro-2H,7H-spiro[furo[2,3-e]isoindole-3,4′-piperidin]-7-yl)piperidine-2,6-dione]
  DC50: < 50 nM
  Dmax: 60 to 80%

## O=C1CC[C@H](N2Cc3c(ccc4c3OCC43CCN(Cc4ccc5c(c4)NC(=O)CC5)CC3)C2=O)C(=O)N1 [Compound A303, 3-(6-oxo-1′-((2-oxo-1,2,3,4-tetrahydroquinolin-7-yl)methyl)-6,8-dihydro-2H,7H-spiro[furo[2,3-e]isoindole-3,4′-piperidin]-7-yl)piperidine-2,6-dione]
  DC50: 200 to 500 nM
  Dmax: 60 to 80%

## O=C1CC[C@H](N2Cc3c(ccc4c3OCC43CCN(Cc4cccc(C5CCOC5)c4)CC3)C2=O)C(=O)N1 (stereo partly drawn) [Compound A304, (3S)-3-(6-oxo-1′-(3-(tetrahydrofuran-3-yl)benzyl)-6,8-dihydro-2H,7H-spiro[furo[2,3-e]isoindole-3,4′-piperidin]-7-yl)piperidine-2,6-dione]
  DC50: > 500 nM
  Dmax: 40 to 60%

## O=C1CC[C@H](N2Cc3c(ccc4c3OCC43CCN(CC4CCCN(C(=O)c5ccccc5)C4)CC3)C2=O)C(=O)N1 (stereo partly drawn) [Compound A305, (3S)-3-(1′-((1-benzoylpiperidin-3-yl)methyl)-6-oxo-6,8-dihydro-2H,7H-spiro[furo[2,3-e]isoindole-3,4′-piperidin]-7-yl)piperidine-2,6-dione]
  DC50: > 500 nM
  Dmax: 40 to 60%

## CN1CC2(CCN(Cc3cccc(-c4cnn(C)c4)c3)CC2)c2ccc3c(c21)CN(C1CCC(=O)NC1=O)C3=O (centres unmarked) [Compound A308, 3-(1′-methyl-1-(3-(1-methyl-1H-pyrazol-4-yl)benzyl)-6′-oxo-1′,2′,6′,8′-tetrahydro-7′H-spiro[piperidine-4,3′-pyrrolo[3,4-g]indol]-7′-yl)piperidine-2,6-dione]
  DC50: > 500 nM
  Dmax: < 40%

## Cn1cc(-c2cccc(CN3CCC4(CC3)CNc3c4ccc4c3CN(C3CCC(=O)NC3=O)C4=O)c2)cn1 (centres unmarked) [Compound A309, 3-(1-(3-(1-methyl-1H-pyrazol-4-yl)benzyl)-6′-oxo-1′,2′,6′,8′-tetrahydro-7′H-spiro[piperidine-4,3′-pyrrolo[3,4-g]indol]-7′-yl)piperidine-2,6-dione]
  DC50: > 500 nM
  Dmax: 40 to 60%

## O=C1CCC(N2Cc3c(ccc4c3OCC43CCN(Cc4cnn(-c5ccccc5F)c4)CC3)C2=O)C(=O)N1 (centres unmarked) [Compound A310, 3-(1′-((1-(2-fluorophenyl)-1H-pyrazol-4-yl)methyl)-6-oxo-6,8-dihydro-2H,7H-spiro[furo[2,3-e]isoindole-3,4′-piperidin]-7-yl)piperidine-2,6-dione]
  DC50: > 500 nM
  Dmax: < 40%

## O=C1CCC(N2Cc3c(ccc4c3OCC43CCN(Cc4cnn(-c5cccc(F)c5)c4)CC3)C2=O)C(=O)N1 (centres unmarked) [Compound A311, 3-(1′-((1-(3-fluorophenyl)-1H-pyrazol-4-yl)methyl)-6-oxo-6,8-dihydro-2H,7H-spiro[furo[2,3-e]isoindole-3,4′-piperidin]-7-yl)piperidine-2,6-dione]
  DC50: > 500 nM
  Dmax: 40 to 60%

## O=C1CCC(N2Cc3c(ccc4c3OCC43CCN(Cc4cnn(-c5ccc(F)cc5)c4)CC3)C2=O)C(=O)N1 (centres unmarked) [Compound A312, 3-(1′-((1-(4-fluorophenyl)-1H-pyrazol-4-yl)methyl)-6-oxo-6,8-dihydro-2H,7H-spiro[furo[2,3-e]isoindole-3,4′-piperidin]-7-yl)piperidine-2,6-dione]
  DC50: > 500 nM
  Dmax: 40 to 60%

## O=C1CCC(N2Cc3c(ccc4c3OCC43CCN(Cc4cnn(-c5cccc(Cl)c5)c4)CC3)C2=O)C(=O)N1 (centres unmarked) [Compound A313, 3-(1′-((1-(3-chlorophenyl)-1H-pyrazol-4-yl)methyl)-6-oxo-6,8-dihydro-2H,7H-spiro[furo[2,3-e]isoindole-3,4′-piperidin]-7-yl)piperidine-2,6-dione]
  DC50: 50 to 200 nM
  Dmax: 60 to 80%

## O=C1CCC(N2Cc3c(ccc4c3OCC43CCN(Cc4cnn(-c5ccc(Cl)cc5)c4)CC3)C2=O)C(=O)N1 (centres unmarked) [Compound A314, 3-(1′-((1-(4-chlorophenyl)-1H-pyrazol-4-yl)methyl)-6-oxo-6,8-dihydro-2H,7H-spiro[furo[2,3-e]isoindole-3,4′-piperidin]-7-yl)piperidine-2,6-dione]
  DC50: < 50 nM
  Dmax: 60 to 80%

## O=C1CC[C@H](N2Cc3c(ccc4c3OCC43CCN(Cc4ccn(-c5ccc(Cl)cc5)n4)CC3)C2=O)C(=O)N1 [Compound A315, (S)-3-(1′-((1-(4-chlorophenyl)-1H-pyrazol-3-yl)methyl)-6-oxo-6,8-dihydro-2H,7H-spiro[furo[2,3-e]isoindole-3,4′-piperidin]-7-yl)piperidine-2,6-dione]
  DC50: 50 to 200 nM
  Dmax: 40 to 60%

## O=C1CCC(N2Cc3c(ccc4c3OCC43CCN(Cc4ccn(-c5cccc(F)c5)n4)CC3)C2=O)C(=O)N1 (centres unmarked) [Compound A316, 3-(1′-((1-(3-fluorophenyl)-1H-pyrazol-3-yl)methyl)-6-oxo-6,8-dihydro-2H,7H-spiro[furo[2,3-e]isoindole-3,4′-piperidin]-7-yl)piperidine-2,6-dione]
  DC50: > 500 nM
  Dmax: 40 to 60%

## O=C1CC[C@H](N2Cc3c(ccc4c3OCC43CCN(Cc4ccccc4)CC3)C2=O)C(=O)N1 [Compound A317, (S)-3-(1′-benzyl-6-oxo-6,8-dihydro-2H,7H-spiro[furo[2,3-e]isoindole-3,4′-piperidin]-7-yl)piperidine-2,6-dione]
  DC50: 200 to 500 nM
  Dmax: 40 to 60%

## CC(c1ccccc1)N1CCC2(CC1)COc1c2ccc2c1CN(C1CCC(=O)NC1=O)C2=O (centres unmarked) [Compound A318, 3-(6-oxo-1′-(1-phenylethyl)-6,8-dihydro-2H,7H-spiro[furo [2,3-e]isoindole-3,4′-piperidin]-7-yl)piperidine-2,6-dione]
  DC50: < 50 nM
  Dmax: 60 to 80%

## O=C1CCC(N2Cc3c(ccc4c3OCC43CCN(Cc4cnn(CC5COC5)c4)CC3)C2=O)C(=O)N1 (centres unmarked) [Compound A319, 3-(1′-((1-(oxetan-3-ylmethyl)-1H-pyrazol-4-yl)methyl)-6-oxo-6,8-dihydro-2H,7H-spiro[furo[2,3-e]isoindole-3,4′-piperidin]-7-yl)piperidine-2,6-dione]
  DC50: > 500 nM
  Dmax: < 40%

## CC1(Cn2cc(CN3CCC4(CC3)COc3c4ccc4c3CN(C3CCC(=O)NC3=O)C4=O)cn2)COC1 (centres unmarked) [Compound A320, 3-(1′-((1-((3-methyloxetan-3-yl)methyl)-1H-pyrazol-4-yl)methyl)-6-oxo-6,8-dihydro-2H,7H-spiro[furo[2,3-e]isoindole-3,4′-piperidin]-7-yl)piperidine-2,6-dione]
  DC50: > 500 nM
  Dmax: 40 to 60%

## O=C1CCC(N2Cc3c(ccc4c3OCC43CCN(Cc4ccn(-c5ccccc5Cl)n4)CC3)C2=O)C(=O)N1 (centres unmarked) [Compound A321, 3-(1′-((1-(2-chlorophenyl)-1H-pyrazol-3-yl)methyl)-6-oxo-6,8-dihydro-2H,7H-spiro[furo[2,3-e]isoindole-3,4′-piperidin]-7-yl)piperidine-2,6-dione]
  DC50: > 500 nM
  Dmax: < 40%

## O=C1CCC(N2Cc3c(ccc4c3OCC43CCN(Cc4ccn(-c5ccc(F)cc5)n4)CC3)C2=O)C(=O)N1 (centres unmarked) [Compound A322, 3-(1′-((1-(4-fluorophenyl)-1H-pyrazol-3-yl)methyl)-6-oxo-6,8-dihydro-2H,7H-spiro[furo[2,3-e]isoindole-3,4′-piperidin]-7-yl)piperidine-2,6-dione]
  DC50: > 500 nM
  Dmax: < 40%
